Patent publication US3992391A, “1,3-Disubstituted thiourea compounds and preparation thereof” (priority 1972, dated 1976)
Where a name gives a salt, the structure may show the parent alone.

What was measured:
Na^+, K^+ - ATPase [1] = assay: Brain Na^+, K^+ - ATPase after triethyl tin sulfate cerebral edema; format: in vivo; conditions: rats
Description: (§1) Cerebral edema was induced in rats by a triethyl tin sulfate (5.0 mg/kg, i.p.) made on the whole brain. Edema was measured by the increase in water content, lactate, phosphorylase activity and the decrease in glycogen, Na^+, K^+ - ATPase activity of the whole brain.
(§2) 1-(3'-Pyridyl)-3-(2'-hydroxyethyl)thiourea HCl was given 1 hour before and 24, 48 hours after the lesion treatment and the animals were killed by decapitation 72 hours after the lesion treatment.

[2] = test system: cardiac carbohydrate, lactate and fat; assay: Cardiac carbohydrate, lactate and fat under the influence of isoproterenol in an anoxic condition; format: in vivo, male rats of wister-strain; conditions: rats, 1.0 mg/kg i.v.
Description: Male rats of wister - strain served as experimental animals. Isoproterenol in a dose of 3.0 μg/kg was injected intravenously to the animals, and 5 minutes later, the rat was taken to a closed room which was filled with a mixture gas consisting of 5 % oxygen and 95 % nitrogen. After the rat was kept in the above mentioned gas chamber for 5 minutes, they were killed by cervical dislocation. The anoxic state of the heart was measured by the cardiac carbohydrate (glycogen, pyruvate), lactate and fat [non-esterifiedfatty acid (hereinafter, referred to as NEFA), triglyceride (hereinafter, referred to as TG)].

[3] = test system: distribution of ^14 C - glucose to brain; assay: Distribution of ^14 C - glucose(U) to brain; format: in vivo, mouse; conditions: for ^14 C-glucose, Brain / ^14 C-glucose, Brain/Plasma / ^14 C-glucose, Plasma: mouse, 300 mg/kg oral
Description: ^14 C - glucose(U) was given intravenously (1.0 μC/mouse), and the animals were killed by decapitation 10 minutes after ^14 C - glucose administration. 1-(3'-Pyridyl)-3-(2'-hydroxyethyl)thiourea HCl was given orally 300 mg/kg before ^14 C - glucose administration.

[4] = test system: cerebral carbohydrate and lactate metabolism; assay: Brain glycogen and lactate after triethyl tin sulfate cerebral edema; format: in vivo; conditions: rats
Description: as §1, §2

phosphorylase = assay: Brain phosphorylase after triethyl tin sulfate cerebral edema; format: in vivo; conditions: rats
Description: as §1, §2

[5] = Hypoxia test (rat), normal pressure, survival time; format: in vivo, rats (wister-strain); conditions: 1.5 % O2 + 98.5 % N2
Description: Male mice (dd-strain) and rats (wister-strain) were taken to a closed room which was filled with a gas mixture consisting of 1.5 % oxygen and 98.5 % nitrogen, or was conditioned in reduced atmospheric pressure (145 mmHg). In the other hand, mice and rats were given sodium cyanide (10 mg/kg, i.p.). These animals died after a few minutes in such conditions. 1-(3'-Pyridyl)-3-(2'-hydroxyethyl)thiourea HCl was given 1 hour before these hypoxia tests.
In the Tables data mean the increase percent of the survival time to that of control.

[6] = Hypoxia test (mouse), KCN, survival time; format: in vivo, male mice (dd-strain); conditions: KCN 10 mg/kg i.p.
[7] = Cerebral water content after cold injury (freezing lesion cerebral edema); format: in vivo; conditions: rats
Description: (§3) Cerebral edema was induced in rats by a freezing lesion (dry ice) made on the exposed dura of unilateral hemisphere. Edema was measured by the increase in water content of gray and white matter, the increase in phosphorylase activity and the decrease in Na^+, K^+ - ATPase activity of the injured brain. 1-(3'-Pyridyl)-3-(2'-hydroxyethyl)thiourea HCl was given 1 hour before and 24 hours after, and the animals were killed by decapitation 48 hours after the lesion treatment.

Acute toxicity = format: in vivo; conditions: for LD50: mouse, in vivo, dd-strain male mice
Description: Acute toxicity of 1-(3'-pyridyl)-3-(2'-hydroxyethyl)thiourea hydrochloride was determined in dd-strain male mice.

[8] = Brain water content after triethyl tin sulfate cerebral edema; format: in vivo; conditions: rats; for H2O, Gray: gray matter; for H2O, White: white matter
Description: as §1, §2

[9] = Prolonging effect on lethal time under various hypoxic conditions (mice and rats, all tests together); format: in vivo, mice (dd-strain) and rats (wister-strain); conditions: 100, 300 mg/kg p.o., 100 mg/kg s.c., and 30 mg/kg i.v.
Na^+, K^+ - ATPase [10] = assay: Cerebral Na^+, K^+ - ATPase after cold injury (freezing lesion cerebral edema); format: in vivo; conditions: rats
Description: as §3

[11] = heart, 5 minutes before isoproterenol
[12] = heart, 10 minutes before isoproterenol
[13] = heart, 30 minutes before isoproterenol
[14] = heart, 60 minutes before isoproterenol

Compound: OCCNC(=S)Nc1cccnc1 [1-(3'-pyridyl)-3-(2'-hydroxyethyl)thiourea hydrochloride]
- ATPase (Na^+, K^+ - ATPase [1]; 30 mg/kg p.o.): 1.146 μ moles Pi/g/hr
- ATPase (Na^+, K^+ - ATPase [1]; 100 mg/kg p.o.): 1.193 μ moles Pi/g/hr
- ATPase (Na^+, K^+ - ATPase [1]; 300 mg/kg p.o.): 1.246 μ moles Pi/g/hr
- effect on the decrease in Na^+, K^+ - ATPase activity of the injured brain (Na^+, K^+ - ATPase [1]; 100 and 300 mg/kg orally): antagonized
- effect on the increase in NEFA level ([2]; heart): antagonized
- effect on the increase in lactate level ([2]; heart): antagonized
- effect on the increase in pyruvate level ([2]; heart): antagonized
- Glycogen [2, 11]: 5.68 ± 0.45 mg/g
- Lactate [2, 11]: 123.2 ± 10.7 µg/g
- NEFA [2, 11]: 4.26 ± 0.35 µM/g
- Pyruvate [2, 11]: 38.4 ± 2.42 µg/g
- TG [2, 11]: 2.15 ± 0.21 mg/g
- Glycogen [2, 12]: 6.05 ± 0.51 mg/g
- Lactate [2, 12]: 95.1 ± 8.2 µg/g
- NEFA [2, 12]: 4.12 ± 0.29 µM/g
- Pyruvate [2, 12]: 29.5 ± 3.15 µg/g
- TG [2, 12]: 1.98 ± 0.13 mg/g
- Glycogen [2, 13]: 6.97 ± 0.41 mg/g
- Lactate [2, 13]: 92.5 ± 9.7 µg/g
- NEFA [2, 13]: 3.87 ± 0.32 µM/g
- Pyruvate [2, 13]: 25.2 ± 2.07 µg/g
- TG [2, 13]: 1.87 ± 0.19 mg/g
- Glycogen [2, 14]: 5.92 ± 0.62 mg/g
- Lactate [2, 14]: 140.6 ± 12.3 µg/g
- NEFA [2, 14]: 4.58 ± 0.36 µM/g
- Pyruvate [2, 14]: 39.3 ± 2.76 µg/g
- TG [2, 14]: 2.25 ± 0.18 mg/g
- effect on the decrease in cardiac glycogen content [2]: antagonized
- significance of the antagonizing effect ([2]; administered 10 - 30 minutes before isoproterenol): significantly
- distribution of ^14 C - glucose to brain ([3]; 300 mg/kg orally, given 60 - 120 minutes before ^14 C - glucose): increased
- ^14 C-glucose, Brain ([3]; 30 min before ^14 C-glucose): 88.90 ± 12.69 × 10^3 dpm/g
- ^14 C-glucose, Brain/Plasma ([3]; 30 min before ^14 C-glucose): 2.52 ± 0.59
- ^14 C-glucose, Plasma ([3]; 30 min before ^14 C-glucose): 35.22 ± 2.36 × 10^3 dpm/ml
- ^14 C-glucose, Brain ([3]; 60 min before ^14 C-glucose): 93.76 ± 5.33 × 10^3 dpm/g
- ^14 C-glucose, Brain/Plasma ([3]; 60 min before ^14 C-glucose): 2.48 ± 0.44
- ^14 C-glucose, Plasma ([3]; 60 min before ^14 C-glucose): 37.88 ± 3.15 × 10^3 dpm/ml
- ^14 C-glucose, Brain ([3]; 120 min before ^14 C-glucose): 96.80 ± 6.80 × 10^3 dpm/g
- ^14 C-glucose, Brain/Plasma ([3]; 120 min before ^14 C-glucose): 2.69 ± 0.15
- ^14 C-glucose, Plasma ([3]; 120 min before ^14 C-glucose): 35.93 ± 0.95 × 10^3 dpm/ml
- Glycogen ([4]; 30 mg/kg p.o.): 1.03 mg/g
- Lactate ([4]; 30 mg/kg p.o.): 72.5 µg/g
- Glycogen ([4]; 100 mg/kg p.o.): 1.17 mg/g
- Lactate ([4]; 100 mg/kg p.o.): 65.5 µg/g
- Glycogen ([4]; 300 mg/kg p.o.): 1.27 mg/g
- Lactate ([4]; 300 mg/kg p.o.): 61.0 µg/g
- effect on the decrease in glycogen level of the injured brain ([4]; 100 and 300 mg/kg orally): antagonized
- effect on the increase in lactate level of the injured brain ([4]; 100 and 300 mg/kg orally): antagonized
- Phosphorylase A/T × 100 (Active phosphorylase/Total phosphorylase) (phosphorylase; 30 mg/kg p.o.): 73.3
- Phosphorylase, Active (phosphorylase; 30 mg/kg p.o.): 0.197 units/g
- Phosphorylase A/T × 100 (Active phosphorylase/Total phosphorylase) (phosphorylase; 100 mg/kg p.o.): 71.5
- Phosphorylase, Active (phosphorylase; 100 mg/kg p.o.): 0.192 units/g
- Phosphorylase A/T × 100 (Active phosphorylase/Total phosphorylase) (phosphorylase; 300 mg/kg p.o.): 67.8
- Phosphorylase, Active (phosphorylase; 300 mg/kg p.o.): 0.187 units/g
- increase percent of the survival time to that of control ([5]; 30 mg/kg i.v.): 148%
- increase percent of the survival time to that of control ([5]; 30 mg/kg p.o.): 36%
- increase percent of the survival time to that of control ([5]; 100 mg/kg p.o.): 75%
- increase percent of the survival time to that of control ([5]; 100 mg/kg s.c.): 192%
- increase percent of the survival time to that of control ([5]; 300 mg/kg p.o.): 153%
- increase percent of the survival time to that of control ([6]; 30 mg/kg i.v.): 185%
- increase percent of the survival time to that of control ([6]; 30 mg/kg p.o.): 42%
- increase percent of the survival time to that of control ([6]; 100 mg/kg p.o.): 189%
- increase percent of the survival time to that of control ([6]; 100 mg/kg s.c.): 254%
- increase percent of the survival time to that of control ([6]; 300 mg/kg p.o.): 287%
- H2O, Gray matter ([7]; 100 mg/kg p.o.): 81.5%
- H2O, White matter ([7]; 100 mg/kg p.o.): 80.3%
- effect on the increase in water content ([7]; 300 mg/kg p.o.): protective effect
- H2O, Gray matter ([7]; 300 mg/kg p.o.): 79.7%
- H2O, White matter ([7]; 300 mg/kg p.o.): 79.5%
- acute lethal toxic symptoms (Acute toxicity; dose of LD50 or more): sedation and paralysis
- LD50 (Acute toxicity; iv): 640 mg/kg
- LD50 (Acute toxicity; po): > 2000 mg/kg
- LD50 (Acute toxicity; sc): 1350 mg/kg
- H2O, Gray ([8]; 30 mg/kg p.o.): 81.6%
- H2O, White ([8]; 30 mg/kg p.o.): 79.5%
- H2O, Gray ([8]; 100 mg/kg p.o.): 80.2%
- H2O, White ([8]; 100 mg/kg p.o.): 78.3%
- H2O, Gray ([8]; 300 mg/kg p.o.): 79.4%
- H2O, White ([8]; 300 mg/kg p.o.): 77.8%
- survival in comparison with the survival time of each control group [9]: survived twice or more
- ATPase (Na^+, K^+ - ATPase [10]; 100 mg/kg p.o.): 1.180 ± 0.094 μ moles Pi/g/hr
- ATPase (Na^+, K^+ - ATPase [10]; 300 mg/kg p.o.): 1.226 ± 0.080 μ moles Pi/g/hr
- effect on the decrease in Na^+, K^+ - ATPase activity (Na^+, K^+ - ATPase [10]; 300 mg/kg p.o.): protective effect
